Paper PMC5706701, “Development of a homogenous high-throughput assay for inositol hexakisphosphate kinase 1 activity” (PLoS ONE, 2017)
Structures can show the parent of a compound that is named as a salt. Where two headings read alike, the source gives them in different places.

Biological target: T1, Human IP6K1 (Homo sapiens, UniProt Q92551)
T1 construct: GST (N, cleaved yes); made in house; host or cells: C43 E. coli, pGEX-6P-2
Test: IP6K1 high-throughput screen of the Sigma LOPAC (ADP-Glo Max, single point);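 also: final compound concentration 10µM in 5% DMSO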
Type: biochemical

[1] = LOPAC single-point screen, ADP-Glo Max raw signal per well
[2] = LOPAC single-point screen, Z-score against plate average and StDev
[3] = Sigma LOPAC single-point screen, ADP-Glo Max raw signal per well
[4] = Sigma LOPAC single-point screen, Z-score from plate average and StDev
[5] = LOPAC single-point screen, Z-score from raw signal with plate average and StDev
[6] = LOPAC single-point screen, ADP-Glo Max luminescence raw signal per well
[7] = LOPAC single-point screen, Z-score relative to plate average and StDev
[8] = LOPAC single-point screen, Z-score from plate average and StDev

T1 sequence (Q92551 whole entry): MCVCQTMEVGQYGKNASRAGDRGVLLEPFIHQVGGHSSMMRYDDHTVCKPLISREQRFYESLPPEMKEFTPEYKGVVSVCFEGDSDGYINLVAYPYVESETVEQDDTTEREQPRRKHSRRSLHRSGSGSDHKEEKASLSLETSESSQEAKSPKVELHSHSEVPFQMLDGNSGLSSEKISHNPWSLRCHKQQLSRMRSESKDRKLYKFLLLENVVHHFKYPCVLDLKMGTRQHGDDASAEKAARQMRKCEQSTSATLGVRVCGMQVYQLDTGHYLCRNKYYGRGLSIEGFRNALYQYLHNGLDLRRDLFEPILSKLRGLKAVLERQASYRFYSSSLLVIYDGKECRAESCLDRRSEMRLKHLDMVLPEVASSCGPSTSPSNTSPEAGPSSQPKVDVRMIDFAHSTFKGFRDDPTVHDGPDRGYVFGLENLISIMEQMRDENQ

## N#C/C(=C\c1c[nH]c2ccccc12)C(=O)c1ccc(O)c(O)c1 [Tyrphostin AG 808]
[1]
  Raw Signal: 55945
[2]
  Z-score: -0.01531

## CC(C)(C)c1cc(/C=C(\C#N)C(N)=S)cc(C(C)(C)C)c1O [Tyrphostin AG 879]
[1]
  Raw Signal: 56085
[2]
  Z-score: 0.01189

## COc1cc2ncnc(Nc3cccc(Cl)c3)c2cc1OC [Tyrphostin AG 1478]
[3]
  Raw Signal: 57891
[4]
  Z-score: 0.3628

## N#CC(=C(/N)Sc1ccccc1N)/C(C#N)=C(/N)Sc1ccccc1N [U0126]
[1]
  Raw Signal: 55334
[5]
  Z-score: -0.134

## COc1ccc2c(c1)CC[C@@H]1[C@@H]2CC[C@]2(C)[C@@H](NCCCCCCN3C(=O)C=CC3=O)CC[C@@H]12 [U-73122]
[1]
  Raw Signal: 55186
[5]
  Z-score: -0.1628

## C[C@]12C=CC(=O)C=C1CC[C@@H]1C2=CC[C@]2(C)[C@@H](C(=O)CN3CCN(c4cc(N5CCCC5)nc(N5CCCC5)n4)CC3)CC[C@@H]12.O=C(O)/C=C\C(=O)O [U-74389G maleate]
[6]
  Raw Signal: 52844
[7]
  Z-score: -0.6178

## CCCCC/C=C\C[C@@H](O)/C=C/c1cccc(C[C@@H](O)CCCCO)n1 [U-75302]
[6]
  Raw Signal: 63793
[8]
  Z-score: 1.509

## Cc1c(C)c2c(c(C)c1O)CCC(C)(CN1CCN(c3cc(N4CCCC4)nc(N4CCCC4)n3)CC1)O2.Cl.Cl (centres unmarked) [U-83836 dihydrochloride]
[6]
  Raw Signal: 52883
[7]
  Z-score: -0.6102

## CCCN(CCC)C1Cc2cc(OC)c(OC)cc2C1.O=C(O)/C=C\C(=O)O [U-99194A maleate]
[1]
  Raw Signal: 57664
[2]
  Z-score: 0.3187

## CC(C)Oc1cccnc1N(C)C1CCN(Cc2ccccc2)CC1.O=C(O)/C=C\C(=O)O [U-101958 maleate]
[6]
  Raw Signal: 65094
[8]
  Z-score: 1.762

## Brc1c(NC2=NCCN2)ccc2nccnc12 [UK 14,304]
  Raw Signal: 53944
  Z-score: -0.4041

## COc1ccccc1N1CCN(CCCNc2cc(=O)n(C)c(=O)n2C)CC1 [Urapidil hydrochloride]
[1]
  Raw Signal: 54926
[5]
  Z-score: -0.2133

## COc1ccccc1N1CCN(CCCNc2c(C)c(=O)n(C)c(=O)n2C)CC1 [Urapidil, 5-Methyl-]
[3]
  Raw Signal: 62058
[4]
  Z-score: 1.172

## O=c1ccn(C2OC(COP(=O)(O)OP(=O)([O-])O)C(O)C2O)c(=O)[nH]1.[Na+] (centres unmarked) [Uridine 5 -diphosphate sodium]
[3]
  Raw Signal: 58265
[4]
  Z-score: 0.4354

## C[C@H](N)CN1CCc2ccc(Br)cc21.C[C@H](N)CN1CCc2ccc(Br)cc21.O=C(O)/C=C/C(=O)O [VER-3323 hemifumarate salt]
[3]
  Raw Signal: 59728
[4]
  Z-score: 0.8963

## COc1ccccc1NC(=O)Nc1nc(-c2cccnc2)nc2ccccc12 [VUF 5574]
[3]
  Raw Signal: 58097
[4]
  Z-score: 0.4028

## CCCC(CCC)C(=O)O [Valproic acid sodium]
[6]
  Raw Signal: 64941
[8]
  Z-score: 1.772

## CCN(CC)C(=O)c1ccc(O)c(OC)c1 [Vanillic acid diethylamide]
[1]
  Raw Signal: 56150
[2]
  Z-score: 0.1996

## CC[C@]1(O)C[C@@H]2CN(CCc3c([nH]c4ccccc34)[C@@](C(=O)OC)(c3cc4c(cc3OC)N(C)[C@H]3[C@@](O)(C(=O)OC)[C@H](OC(C)=O)[C@]5(CC)C=CCN6CC[C@]43[C@@H]65)C2)C1.O=S(=O)(O)O [Vinblastine sulfate salt]
[1]
  Raw Signal: 55305
[5]
  Z-score: -0.1396

## CC[C@]1(O)C[C@H]2CN(CCc3c([nH]c4ccccc34)[C@@](C(=O)OC)(c3cc4c(cc3OC)N(C=O)[C@H]3[C@@](O)(C(=O)OC)[C@H](OC(C)=O)[C@]5(CC)C=CCN6CC[C@]43[C@@H]65)C2)C1 [Vincristine sulfate]
[3]
  Raw Signal: 57865
[4]
  Z-score: 0.3577

## CCOC(=O)C1=C[C@]2(CC)CCCN3CCc4c(n1c1ccccc41)[C@@H]32 [Vinpocetine]
[3]
  Raw Signal: 59958
[4]
  Z-score: 0.7643

## Cl.NCCCCCCNS(=O)(=O)c1cccc2c(Cl)cccc12 [W-7 hydrochloride]
[1]
  Raw Signal: 57979
[2]
  Z-score: 0.01161

## COc1ccccc1N1CCN(CCN(C(=O)C2CCCCC2)c2ccccn2)CC1.O=C(O)/C=C\C(=O)O [WAY-100635 maleate]
[1]
  Raw Signal: 54317
[5]
  Z-score: -0.3316

## COc1cccc(OC)c1OCCNCC1COc2ccccc2O1.Cl (centres unmarked) [WB-4101 hydrochloride]
[3]
  Raw Signal: 58268
[4]
  Z-score: 0.6298

## C#C[C@]1(O)CC[C@H]2[C@@H]3CCC4=Cc5nc6nc7ccccc7n6cc5C[C@]4(C)[C@H]3CC[C@@]21C [WIN 62,577]
[3]
  Raw Signal: 58080
[4]
  Z-score: 0.3995

## COC[C@H]1OC(=O)c2coc3c2[C@@]1(C)C1=C(C3=O)[C@@H]2CCC(=O)[C@@]2(C)C[C@H]1OC(C)=O [Wortmannin from Penicillium funiculosum]
[6]
  Raw Signal: 53582
[7]
  Z-score: -0.4744

## CC(Oc1ccc(Oc2cnc3ccc(Cl)cc3n2)cc1)C(=O)O (centres unmarked) [XK469]
[1]
  Raw Signal: 55038
[5]
  Z-score: -0.1915

## O=C(NCCNCC(O)COc1ccc(O)cc1)N1CCOCC1 (centres unmarked) [Xamoterol hemifumarate]
[3]
  Raw Signal: 60033
[4]
  Z-score: 0.7789

## CCCn1c(=O)c2[nH]c(-c3ccc(OCC(=O)NCCN)cc3)nc2n(CCC)c1=O [Xanthine amine congener]
[3]
  Raw Signal: 61437
[4]
  Z-score: 1.052

## Cc1cccc(C)c1N=C1NCCCS1 [Xylazine hydrochloride]
  Raw Signal: 56727
  Z-score: 0.1366

## Cc1cc(C(C)(C)C)cc(C)c1CC1=NCCN1 [Xylometazoline hydrochloride]
[1]
  Raw Signal: 57404
[2]
  Z-score: 0.2681

## C[C@@H](N)[C@H]1CC[C@H](C(=O)Nc2ccncc2)CC1.Cl.Cl [Y-27632 dihydrochloride]
[1]
  Raw Signal: 53228
[5]
  Z-score: -0.3938

## OCc1ccc(-c2nn(Cc3ccccc3)c3ccccc23)o1 [YC-1]
[1]
  Raw Signal: 55059
[5]
  Z-score: -0.1874

## COc1ccc(CCN(C)CCc2ccc(OC)c(OC)c2)cc1OC.Cl [YS-035 hydrochloride]
[1]
  Raw Signal: 55463
[5]
  Z-score: -0.109

## COC(=O)[C@@H]1[C@H]2C[C@H]3c4[nH]c5ccccc5c4CCN3C[C@@H]2CC[C@@H]1O [Yohimbine hydrochloride]
[1]
  Raw Signal: 57737
[2]
  Z-score: 0.3328

## O=C(N[C@@H](Cc1ccccc1)C(=O)CCl)OCc1ccccc1 [Z-L-Phe chloromethyl ketone]
[1]
  Raw Signal: 56278
[5]
  Z-score: -0.288

## CC(C)N(CCC(=O)c1ccc2ccccc2c1)Cc1ccccc1.Cl [ZM 39923 hydrochloride]
[1]
  Raw Signal: 54461
[2]
  Z-score: 0.01134

## CCCOc1ccccc1-c1nc2nn[nH]c2c(=O)[nH]1 [Zaprinast]
[1]
  Raw Signal: 56198
[2]
  Z-score: 0.03384

## COc1cc(-c2ccc(=O)[nH]n2)ccc1OC(F)F [Zardaverine]
[1]
  Raw Signal: 57604
[2]
  Z-score: 0.307

## CN(C)C/C=C(/c1ccc(Br)cc1)c1cccnc1 [Zimelidine dihydrochloride]
[6]
  Raw Signal: 63127
[8]
  Z-score: 1.38

## NS(=O)(=O)Cc1noc2ccccc12 [Zonisamide sodium]
[1]
  Raw Signal: 56166
[2]
  Z-score: 0.02763

## CN1CCN(C(=O)OC2c3nccnc3C(=O)N2c2ccc(Cl)cn2)CC1 (centres unmarked) [Zopiclone]
[1]
  Raw Signal: 56506
[2]
  Z-score: 0.09368

## N=C(N)NC(CCC(=O)O)C(=O)O (stereo not drawn) [alpha-Guanidinoglutaric acid]
[1]
  Raw Signal: 54052
[5]
  Z-score: -0.2265

## CN1[C@@H](CC(=O)c2ccccc2)CCC[C@H]1C[C@H](O)c1ccccc1.Cl [alpha-Lobeline hydrochloride]
[1]
  Raw Signal: 53929
[2]
  Z-score: -0.07805

## CC(N)Cc1c[nH]c2ccc(O)cc12.O=C(O)/C=C\C(=O)O (stereo not drawn) [alpha-Methyl-5-hydroxytryptamine maleate]
[2]
  Z-score: 0.02915

## Cl.N[C@@H](CCl)C(=O)O [beta-Chloro-L-alanine hydrochloride]
[1]
  Raw Signal: 58972
[2]
  Z-score: 0.1865

## C[C@]12CC[C@@H]3c4ccc(O)cc4CC[C@H]3[C@@H]1CC[C@@H]2O [beta-Estradiol]
[6]
  Raw Signal: 51790
[7]
  Z-score: -0.6858

## CC1(C)CCC2=C(O1)c1ccccc1C(=O)C2=O [beta-Lapachone]
[1]
  Raw Signal: 54181
[2]
  Z-score: -0.03571

## NC/C=C\C(=O)O [cis-4-Aminocrotonic acid]
[6]
  Raw Signal: 52551
[7]
  Z-score: -0.6747

## OCCN1CCN(CC/C=C2/c3ccccc3Sc3ccc(C(F)(F)F)cc32)CC1 [cis-(Z)-Flupenthixol dihydrochloride]
[1]
  Raw Signal: 56412
[2]
  Z-score: 0.2528

## O=C(O)[C@@H]1C[C@H](C(=O)O)N1 [cis-Azetidine-2,4-dicarboxylic acid]
[6]
  Raw Signal: 69033
[8]
  Z-score: 1.959

## C#CC(N)CCC(=O)O (centres unmarked) [gamma-Acetylinic GABA]
[6]
  Raw Signal: 54991
[7]
  Z-score: -0.5147

## N[C@H](CCC(=O)NCS(=O)(=O)O)C(=O)O [gamma-D-Glutamylaminomethylsulfonic acid]
[3]
  Raw Signal: 58321
[4]
  Z-score: 0.6405

## CC(C(=O)O)c1ccc(CC2CCCC2=O)cc1 (centres unmarked) [loxoprofen]
[6]
  Raw Signal: 49153
[7]
  Z-score: -0.8805

## NC(N)=NCc1cccc(I)c1.NC(N)=NCc1cccc(I)c1.O=S(=O)(O)O [m-Iodobenzylguanidine hemisulfate]
[3]
  Raw Signal: 60474
[4]
  Z-score: 1.022

## Cl.Cl.Oc1ccc2c3c1O[C@H]1c4[nH]c5c(c4C[C@@]4(O)[C@@H](C2)N(CC2CC2)CC[C@]314)C[C@@]1(O)[C@H]2Cc3ccc(O)c4c3[C@@]1(CCN2CC1CC1)[C@H]5O4 [nor-Binaltorphimine dihydrochloride]
[3]
  Raw Signal: 56488
[4]
  Z-score: 0.3519

## Cl.Nc1cc(Cl)c(N=C2NCCN2)c(Cl)c1 [p-Aminoclonidine hydrochloride]
[1]
  Raw Signal: 56073
[5]
  Z-score: -0.3241
